Results reported in paper PMC4077815, “Modulation of Phosphorylation of Tocopherol and Phosphatidylinositol by hTAP1/SEC14L2-Mediated Lipid Exchange” (PLoS ONE, 2014).

What was measured:
[1] = molecular target: T1, recombinant PI3Kγ/p110γ (phosphatidylinositol-3-kinase gamma) (Homo sapiens, UniProt P48736); assay: [γ-32P]-ATP phosphatidylinositol kinase assay, TLC; assay type: biochemical; details: stimulator; no hTAP1; phosphatidylinositol 100 µM, ATP 20 µM, 4 mM MgCl2, pH 7.4, 37 °C
T1 construct: gene PIK3CG; no regulatory subunit mentioned

[2] = molecular target: T2, recombinant hTAP1 (human tocopherol associated protein 1, hSEC14L2) (Homo sapiens, UniProt O76054); assay: isoelectric point mobility shift competition with phosphatidylinositol; assay type: binding; design: gene SEC14L2; N-terminal His tag, expressed in and purified from Escherichia coli; details: read-out: 50% displacement of PI
[3] = molecular target: T2, recombinant hTAP1 (human tocopherol associated protein 1, hSEC14L2); design: gene SEC14L2; details: competitor of phosphatidylinositol; native isoelectric focusing gel
[4] = molecular target: recombinant phosphatidylinositol-3-kinase gamma PI3Kγ/p110γ (UniProt P48736)
recombinant phosphatidylinositol-3-kinase gamma PI3Kγ/p110γ, sequence (P48736 whole entry): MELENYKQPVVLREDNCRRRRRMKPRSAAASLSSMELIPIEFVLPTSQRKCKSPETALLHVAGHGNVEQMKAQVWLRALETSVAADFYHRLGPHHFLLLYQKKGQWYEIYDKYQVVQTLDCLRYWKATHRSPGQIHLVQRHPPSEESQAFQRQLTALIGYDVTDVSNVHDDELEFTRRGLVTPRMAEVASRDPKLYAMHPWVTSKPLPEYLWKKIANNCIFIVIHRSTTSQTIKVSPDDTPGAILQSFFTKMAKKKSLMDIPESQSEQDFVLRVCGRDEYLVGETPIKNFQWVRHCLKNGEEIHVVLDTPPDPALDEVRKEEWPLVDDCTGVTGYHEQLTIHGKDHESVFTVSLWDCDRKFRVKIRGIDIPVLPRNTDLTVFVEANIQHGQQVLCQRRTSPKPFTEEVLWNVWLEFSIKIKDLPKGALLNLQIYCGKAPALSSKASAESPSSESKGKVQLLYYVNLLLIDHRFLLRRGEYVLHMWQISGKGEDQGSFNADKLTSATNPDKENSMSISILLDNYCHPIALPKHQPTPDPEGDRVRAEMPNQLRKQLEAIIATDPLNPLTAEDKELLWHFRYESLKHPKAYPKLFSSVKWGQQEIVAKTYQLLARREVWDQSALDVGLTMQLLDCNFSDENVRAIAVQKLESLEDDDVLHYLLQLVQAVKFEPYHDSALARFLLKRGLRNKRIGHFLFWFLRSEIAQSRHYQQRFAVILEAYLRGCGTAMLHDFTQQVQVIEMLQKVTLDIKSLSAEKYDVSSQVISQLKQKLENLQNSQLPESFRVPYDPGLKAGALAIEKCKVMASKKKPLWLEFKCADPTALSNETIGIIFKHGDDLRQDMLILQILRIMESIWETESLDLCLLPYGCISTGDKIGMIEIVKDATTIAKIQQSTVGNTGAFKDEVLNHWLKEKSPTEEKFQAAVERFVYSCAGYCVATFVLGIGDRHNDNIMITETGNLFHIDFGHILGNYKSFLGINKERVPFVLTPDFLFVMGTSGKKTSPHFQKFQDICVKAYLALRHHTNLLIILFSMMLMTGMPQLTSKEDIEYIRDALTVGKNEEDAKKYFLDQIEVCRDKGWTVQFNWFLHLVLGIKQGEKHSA

T1 sequence (P48736 whole entry): as above
T2 sequence (O76054 whole entry): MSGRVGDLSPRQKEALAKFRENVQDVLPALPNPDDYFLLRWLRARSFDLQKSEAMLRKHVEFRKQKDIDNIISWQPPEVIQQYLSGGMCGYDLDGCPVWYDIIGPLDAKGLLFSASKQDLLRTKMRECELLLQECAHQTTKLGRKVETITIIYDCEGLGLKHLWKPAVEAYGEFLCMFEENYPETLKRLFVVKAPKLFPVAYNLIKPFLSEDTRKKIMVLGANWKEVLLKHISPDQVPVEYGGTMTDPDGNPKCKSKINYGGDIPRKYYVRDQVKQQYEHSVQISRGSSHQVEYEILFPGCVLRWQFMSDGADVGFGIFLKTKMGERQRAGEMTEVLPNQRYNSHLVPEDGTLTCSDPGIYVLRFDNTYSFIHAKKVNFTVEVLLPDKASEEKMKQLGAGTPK
recombinant human tocopherol associated protein 1, sequence (O76054 whole entry): as above

Row | Compound | % of control activity at 50 μM [1] | also measured
1 | Cc1c(C)c2c(c(C)c1O)CC[C@@](C)(CCC[C@H](C)CCC[C@H](C)CCCC(C)C)O2 [RRR-α-tocopherol] | All four tocopherols stimulated PI3Kγ activity with similar efficiency (Figure 4A) | IC50 [2]: 50 µM
2 | Cc1cc(O)c(C)c2c1O[C@](C)(CCC[C@H](C)CCC[C@H](C)CCCC(C)C)CC2 [RRR-β-tocopherol] | All four tocopherols stimulated PI3Kγ activity with similar efficiency (Figure 4A) | –
3 | Cc1c(O)cc2c(c1C)O[C@](C)(CCC[C@H](C)CCC[C@H](C)CCCC(C)C)CC2 [RRR-γ-tocopherol] | All four tocopherols stimulated PI3Kγ activity with similar efficiency (Figure 4A) | –
4 | Cc1cc(O)cc2c1O[C@](C)(CCC[C@H](C)CCC[C@H](C)CCCC(C)C)CC2 [RRR-δ-tocopherol] | All four tocopherols stimulated PI3Kγ activity with similar efficiency (Figure 4A) | –
5 | Cc1c(C)c2c(c(C)c1OP(=O)(O)O)CC[C@@](C)(CCC[C@H](C)CCC[C@H](C)CCCC(C)C)O2 [α-tocopheryl phosphate] | αTP stimulated PI3Kγ stronger than αT (Figure 4B) | isoelectric point mobility shift competition with phosphatidylinositol [3]: the competition with αTP was slightly weaker (Figure 3B)
6 | recombinant human tocopherol associated protein 1 (from UniProt O76054 1-403) (natural protein) | – | in vitro PI3Kγ activity (phosphorylation of phosphatidylinositol with [γ-32P]-ATP, TLC) in the presence of recombinant hTAP1, relative to the control without hTAP1 [4]: 38%
